In series [1] the target is T1, ThyX (Paramecium bursaria Chlorella virus 1, UniProt O41156). As to the kind of experiment: biochemical.
The subject of series [2] is E. coli MG1655. As to the kind of experiment: Growth of wild type, thyA-carrying E. coli.
Series [3] deals with E. coli FE010 (ΔthyA::thyX). Particulars: 1.5 μg/ml (≈5 μM), thymidine-deprived medium.
Series [4] concerns the target T1, ThyX. Conditions: varying dUMP concentrations.
Series [5] deals with T2, PBCV-1 ThyX (Paramecium bursaria Chlorella virus 1, UniProt O41156). As to the kind of experiment: NADPH oxidation assay, screen and IC50 by dose-response curves.
T2 sequence (O41156 whole entry, the tested form may be a part): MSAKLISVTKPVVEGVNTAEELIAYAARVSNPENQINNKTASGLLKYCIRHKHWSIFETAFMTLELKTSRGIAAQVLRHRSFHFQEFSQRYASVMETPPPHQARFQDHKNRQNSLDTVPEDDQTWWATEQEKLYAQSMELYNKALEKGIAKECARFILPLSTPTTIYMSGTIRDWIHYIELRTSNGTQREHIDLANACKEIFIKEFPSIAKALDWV
Protocol: The NADPH oxidation assay for PBCV-1 ThyX activity (Graziani, S., Xia, Y., Gurnon, J. R., Van Etten, J. L., Leduc, D., Skouloubris, S., Myllykallio, H., and Liebl, U. (2004) Functional analysis of FAD-dependent thymidylate synthase ThyX from Paramecium bursaria Chlorella virus-1. J. Biol. Chem. 279, 54340-54347) was adapted for a medium throughput inhibitor screen (MTS) in 96-well plates. A typical assay with a final volume of 200 μl, contained 200 μM NADPH, 2 μM CH2H4folate, 5 μM dUMP, 1 mM MgCl2, 1% glycerol, 62.5 μM FAD and 400 nM PBCV-1 ThyX. 1982 compounds from the National Cancer Institute diversity set 1 and 340 natural compounds, selected for their diversity and drug-likeness (GreenPharma) (all in DMSO) were added to a final concentration of 20 μM for the initial screen. The microplates were prepared by a liquid handling robotic workstation (Xiril X75), and manually transferred to the automated microplate reader Chameleon II (Hidex). The reactions were started by automatically injecting NADPH into individual wells and the decrease in absorbance at 340 nm was followed at 37° C. for 5 min. Samples with added DMSO and no enzyme were used as positive and negative controls, respectively. For NADPH oxidation at 340 nm a molar extinction coefficient of 6220 M^−1 cm^−1 was used. For this assay a Z′-factor value of 0.62 was calculated, is indicating robustness of the measurement and an acceptable dynamic range of the signal (Zhang, J. H., Chung, T. D., and Oldenburg, K. R. (1999) J. Biomol. Screen. 4, 67-73). Primary hits were defined as compounds that inhibited 75% of ThyX activity at the initial screening concentration.
Compounds that inhibited PBCV-1 ThyX at 20 μM concentration in the NADPH oxidation assay were selected as hits. For each hit IC50 values were determined by fitting the data from three independent experiments to the equation for a dose-response sigmoid curve using GraphPad Prism 4 Software (GraphPad Software Inc.).
All tests were performed in triplicates in 96 well microtiter plates. A typical assay (200 μL) contained 200 μM NADPH, 2 μM dUMP, 1 mM MgCl2, 1% glycerol, 10 μM FAD, 200 nM of PBCV-1 ThyX and different concentrations of inhibitors ranging from 0.1 μM to 40 μM. The reactions were started by injection of NADPH and the absorbance at 340 nm was followed for 3 min at 37° C. […] A molar extinction coefficient for NADPH oxidation at 340 nm of 6220 M^−1 cm^−1 was used for quantification of absorption changes. The optical path length was 0.5 cm. The obtained Vi/V0 values were plotted for each inhibitor concentration and fitted to sigmoidal dose-response curves using GraphPad Prism 4 Software.
Series [6] has as its system Helicobacter pylori 26695. Description: MIC by broth microdilution / disc diffusion test. It is filed as cell-based. As for the experimental part: Helicobacter pylori strain 26695 and SS1 were grown on either blood agar base two (Oxoid) plates supplemented with 10% defibrinated horse blood (Oxoid) or in liquid culture in brain-heart infusion broth (Oxoid) supplemented with 10% FBS (Gibco BRL). An antibiotics-fungicide mix consisting of vancomycin (final concentration 10 μg/ml), polymyxin B (2.5 units per liter), trimethoprim (5 μg/ml), and fungizone (2.5 μg/ml) was added. Plates were incubated at 37° C. under microaerobic atmosphere in jars using the […] gas generating system (Oxoid). Liquid cultures were shaken at 175 rpm. Minimal inhibitory concentrations (MICS) were determined using a broth microdilution test in 24 well microtiter plates. […] The MIC was determined as the lowest compound concentration resulting in complete growth inhibition after 24 h of incubation. All the tests were done in triplicates and they included no cells and DMSO-only controls. […] For disc diffusion test an overnight culture of H. pylori strain 26695 was diluted to OD600≈0.01 and spread on agar plates by inundation. 10 μg of each compound were deposited onto diffusion discs and plates were incubated under microaerophilic conditions for 72 h. The diameters of each inhibition zone were measured (disk surface and a DMSO inhibition zone were subtracted). All experiments were done in triplicate, including a DMSO-only control on each plate. MIC determination by broth microdilution was not possible for M. smegmatis mc2 155 due to build up of cell aggregates in liquid cultures. The susceptibility of M. smegmatis mc2 155 towards selected compounds was thus tested using disc diffusion test on LB-agar plates as described above. The inhibition diameters were read after 48 h of incubation at 37° C.
On the technique in general: Dilution methods test growth across graded concentrations, often in twofold steps.

For series [7], the target named is T2, PBCV-1 ThyX. Description: Deprotonation (tritium release) assay of ThyX activity. Particulars: read-out: % inhibition (deprotonation) PBCV-1 ThyX. It is filed as biochemical, Paramecium bursaria chlorella virus (PBCV-1).
The test system of series [8] is Mycobacterium smegmatis mc2 155. As to the kind of experiment: Disc diffusion test on LB-agar plates. It is filed as cell-based. On the procedure: Liquid cultures were shaken at 175 rpm. Minimal inhibitory concentrations (MICS) were determined using a broth microdilution test in 24 well microtiter plates. […] The MIC was determined as the lowest compound concentration resulting in complete growth inhibition after 24 h of incubation. All the tests were done in triplicates and they included no cells and DMSO-only controls. […] For disc diffusion test an overnight culture of H. pylori strain 26695 was diluted to OD600≈0.01 and spread on agar plates by inundation. 10 μg of each compound were deposited onto diffusion discs and plates were incubated under microaerophilic conditions for 72 h. The diameters of each inhibition zone were measured (disk surface and a DMSO inhibition zone were subtracted). All experiments were done in triplicate, including a DMSO-only control on each plate. MIC determination by broth microdilution was not possible for M. smegmatis mc2 155 due to build up of cell aggregates in liquid cultures. The susceptibility of M. smegmatis mc2 155 towards selected compounds was thus tested using disc diffusion test on LB-agar plates as described above. The inhibition diameters were read after 48 h of incubation at 37° C.
Background: Agar diffusion results depend on both activity and mobility in agar.

Series [9] has as its system human lymphoblastoid TK6 cells. As to the kind of experiment: GreenScreen HC genotoxicity and cytotoxicity assay.
Protocol: Two strains of cultured human lymphoblastoid TK6 cells were used, the test strain (GenM-T01) and the non-fluorescent control strain (GenM-001), the latter was used to allow correction for any autofluorescence from the test. The plates were analyzed at 24 hour and 48 hour time points using a microplate reader, that allows measurements of light absorbance and fluorescence for cells and solutions in the microplate wells. Absorbance is proportional to cell proliferation, which is lowered by toxic analytes, and fluorescence is proportional to the activity of the cell's DNA repair system, which is increased by genotoxic analytes. […] The GreenScreen HC +S9 protocol uses the same cultured TK6 cell strains (GenM-001 and GenMT01). […] (5% CO2, 95% humidity) for 3 hours. After a recovery period of 45 hours the GFP fluorescence signal and cell viability (assessed by propidium iodide uptake) were measured.
[10] abbreviates: Helicobacter pylori, H. pylori 26695, broth microdilution 24 h or derived from disc diffusion standard curve, read-out: MIC.

In brackets after ≈: the same amount, converted by molar mass. Where two headings read alike, the source gives them in different places.

T1 sequence (O41156 whole entry): as the sequence (O41156 whole entry, the tested form may be a part) above

The Ki is a dissociation constant, usually derived from enzyme kinetics or from competition with a known ligand. Read a high Ki as a looser hold on the target. In turn, `O=C1C=C(Br)C(=O)c2c(O)cccc21` [Compound 2E04, 2-bromo-8-hydroxy-1,4-naphthoquinone] showed a Ki in series [1] of 1.5 µM. Moreover, the “bactericidal activity on isogenic wild type strain” value in series [2] is “not observed”. Also, the “growth inhibition of E. coli FE010 (ΔthyA::thyX)” value in [3] is given as “reproducibly inhibited”. The “effect on apparent Km of the enzyme for dUMP” value (shortened to “effect on apparent Km”) in series [4] was “increased the apparent Km value”.
Usually IC50 stands for the point on the concentration scale where inhibition reaches its midpoint. For the molecule `COc1ccc(C2=C(O)C(=O)c3ccccc3C2=O)cc1` [Compound A3-C2], the IC50 in series [5] was found to be 8 µM. Also, the MIC in [6] (setting [10]) was 4.7 µg/mL (≈ 16.8 µM).
On the same counts, the results for `Cc1ccc(C2=C(O)C(=O)c3ccccc3C2=O)cc1` [Compound A4-C2] are 9 µM and 4.7 µg/mL (≈ 17.8 µM).
On the same counts, the results for `O=C1C(O)=C(Cc2ccccc2)C(=O)c2ccccc21` [Compound A4-S] are 1.4 µM and 1.4 µg/mL (≈ 5.3 µM).
The like results for `O=C1C(O)=C(c2ccc3ccccc3c2)C(=O)c2ccccc21` [Compound A7-S] were, in that order, 1.2 µM and 6 µg/mL (≈ 20 µM).
By inhibition is commonly meant the drop in the measured response relative to a control, in per cent. Turning to `O=C(O)c1ccccc1NC1=CC(=O)c2c(O)cccc2C1=O` [Compound B3-C1, 2-(5-hydroxy-1,4-dioxo-1,4-dihydro-naphthalen-2-ylamino)benzoic acid], the inhibition at 20 µM in series [7] came out at 12 ± 6%.
Molecule `COc1ccc(CC2=C(O)C(=O)c3ccccc3C2=O)cc1` [Compound C8-C1, 2-hydroxy-3-(4-methoxybenzyl)-1,4-naphthoquinone] gave an IC50 in series [5] of 5 µM. Besides, in series [8], the “growth inhibition / antimicrobial activity against Mycobacterium smegmatis mc2155” value was “inhibited the growth”. Further, the Ki in series [1] turned out to be 0.25 µM. For the same molecule, in series [6], the “growth inhibition / antimicrobial activity against Helicobacter pylori 26695” value is “inhibited the growth”. Moreover, the MIC is roughly 2.5 µg/mL (≈ 8.49 µM) in series [6] (Helicobacter pylori, 26695, disc diffusion tests and liquid cultures, read-out: minimal inhibitory concentration (MIC)); 2.5 to 5 µg/mL (≈ 8.49 to 17 µM) in series [6] (setting [10]). Further, in [7], the inhibition at 20 µM worked out at 78 ± 4%. Besides, the genotoxicity result in [9] (GreenScreen HC) is “non-genotoxic”. In addition, the “cytotoxic activity in metabolic activation tests” value in series [9] (S9 fraction, 10 μg/ml) is given as “further decreased”. The cytotoxic activity result in series [9] (without metabolic activation) was “low cytotoxic activity”. Further, in series [4], the “effect on apparent Km” value is recorded as “increased the apparent Km value”.
Turning to `O=C1C(O)=C(c2ccc(Br)cc2)C(=O)c2ccccc21` [Compound C8-S], half-maximal inhibition in series [5] (IC50) was put at 1.2 µM. The molecule further registered an MIC in series [6] (Helicobacter pylori, 26695, 24 h) of 7 µg/mL (≈ 21.3 µM).
Turning to `O=C(CC1=C(O)C(=O)c2ccccc2C1=O)c1ccccc1` [Compound E11-C1, 2-hydroxy-3-(2-oxo-2-phenylethyl)-1,4-naphthoquinone], the inhibition at 20 µM in series [7] is 36 ± 5%.
`Cc1ccc(C(=O)CC2=C(O)C(=O)c3ccccc3C2=O)cc1` [Compound F3-C1, 2-hydroxy-3-(2-oxo-2-p-tolylethyl)-1,4-naphthoquinone]: the inhibition at 20 µM in series [7] was found to be 38 ± 7%.
`O=C1C(O)=C(c2ccc(-c3ccccc3)cc2)C(=O)c2ccccc21` [Compound F6-C1, 2-(biphenyl-4-yl)-3-hydroxy-1,4-naphthoquinone] returned an IC50 in [5] of 0.2 µM. Moreover, the MIC in series [6] (setting [10]) came out at 10 µg/mL (≈ 30.6 µM). Besides, the inhibition at 20 µM in [7] came out at 95 ± 3%.
On the same counts, the results for `COc1ccc(C(=O)CC2=C(O)C(=O)c3ccccc3C2=O)cc1` [Compound G3-C1, 2-hydroxy-3-(2-(4-methoxyphenyl)-2-oxoethyl)-1,4-naphthoquinone] are 13 µM, 10 µg/mL (≈ 31 µM) and 22 ± 7%.
The like results for `O=C(CC1=C(O)C(=O)c2ccccc2C1=O)c1cccs1` [Compound H3-C1, 2-hydroxy-3-(2-oxo-2-(thiophen-2-yl)ethyl)-1,4-naphthoquinone] were, in that order, 8 µM, 10 µg/mL (≈ 33.5 µM) and 38 ± 3%.
Turning to `O=C1C(O)=C([C@H]2CC[C@H](c3ccc(Cl)cc3)CC2)C(=O)c2ccccc21` [atovaquone, reference compound], affinity in series [1] was put at a Ki of 5 µM. In series [4], the “effect on apparent Km” value is listed as “increased the apparent Km value”.

The values above are taken from US20130102650A1, “ANTIMICROBIAL COMPOUNDS OF 1,4-NAPHTOQUINONE STRUCTURE” (priority 2010, published 2013).
